Laboratory results taken from PubChem BioAssay (NCI).
Where “and” joins values, the source holds several entries; their conditions need not be identical. Equal entries are not always repeated.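 The compound was tested at five concentrations on cells cultured in 96-well plates, with a 48-hour exposure period. Here, GI50 denotes the concentration required for 50% inhibition of growth. TGI marks complete inhibition of growth.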

System: MDA-MB-468 breast
Assay: NCI tumour cell line growth inhibition, 48 h

Compound: Cn1cc(C2=C(c3cn(CCCCCSC(=N)N)c4ccccc34)C(=O)NC2=O)c2ccccc21
- GI50: 1550 nM
- TGI: 5460 nM

Compound: CN1CCN(CCCOc2cccc3nc(Nc4ccc(Cl)c(C(F)(F)F)c4)ccc23)CC1
- GI50: 1600 nM
- TGI: 3220 nM

Compound: O=C(CN1C(=O)S/C(=C\C(Cl)=C\c2ccccc2)C1=O)NC1C=CS(=O)(=O)C1 (configuration not stated)
- GI50: 531 nM
- TGI: 2290 nM

Compound: CN1CCN(c2nc(-c3cnc4ccccc4n3)cc3ccccc23)CC1
- GI50: 4980 nM
- TGI: 10600 nM

Compound: c1ccc2c3c([nH]c2c1)C(c1ccc(C2NCCc4c2[nH]c2ccccc42)cc1)NCC3 (configuration not stated)
- GI50: 367 nM
- TGI: 1340 nM

Compound: CC[C@H](C)[C@H](NC(=O)[C@H]1CCCCN1C)C(=O)N(C)[C@H](C[C@@H](OC(C)=O)c1nc(C(=O)N[C@@H](Cc2ccccc2)C[C@H](C)C(=O)O)cs1)C(C)C
- GI50: 0.378 nM and 1.65 nM
- TGI: 3.98 nM

Compound: COC(=O)c1ccc(NC(=O)Oc2ccc(N(CCCl)CCCl)cc2)cc1
- GI50: 1220 nM
- TGI: 9770 nM

Compound: CN(CCCNC(=O)CCOCCOCCOCCNC(=O)Cc1ccc2ccc3cccc4ccc1c2c34)CCCNc1cc(-c2ccc3ccccc3c2)nc2ccccc12
- GI50: 509 nM
- TGI: 1030 nM

Compound: COc1ccc2c(OCc3nnc4ccc(-c5ccccc5)nn34)ccnc2c1
- GI50: 3220 nM
- TGI: > 100000 nM

Compound: Cn1ncc(Cl)c1-c1cc(C(=O)N[C@H](CN)Cc2ccc(F)c(F)c2)oc1Cl
- GI50: < 16.9 nM and 19.4 nM
- TGI: 282 nM and 458 nM

Compound: CCn1c(-c2nonc2N)nc2cncc(C(=O)N3CC[C@H](N)C3)c21
- GI50: 4570 nM
- TGI: 24500 nM

Compound: CCOC(=O)c1cnc2c(C)cccc2c1Nc1ccc(C(C)=O)cc1
- GI50: 26300 nM
- TGI: > 100000 nM

Compound: CC(=O)c1c(C)[nH]c(-c2nc3ccc(N4CCN(C)CC4)cc3[nH]2)c1-c1ccccc1
- GI50: 361 nM
- TGI: 9270 nM

Compound: CC(=O)[O][Hg][c]1c(C)c(C)cc(C)c1C
- GI50: 793 nM
- TGI: 2150 nM

Compound: N=c1c2c(=N)n3c(nc2nc2n1-c1ccccc1Sc1ccccc1-2)sc1cc(Cl)ccc13
- GI50: 1340 nM
- TGI: 5410 nM

Compound: COc1cc2nc3cc([N+](=O)[O-])ccc3c(NCCNCC(C)(C)O)c2cc1OC
- GI50: 220 nM
- TGI: 614 nM

Compound: CO[C@H]1C[C@@H]2CC[C@@H](C)[C@@](O)(O2)C(=O)C(=O)N2CCCC[C@H]2C(=O)O[C@H]([C@H](C)C[C@@H]2CC[C@@H](OCCO)[C@H](OC)C2)CC(=O)[C@H](C)C=C(C)[C@@H](O)[C@@H](OC)C(=O)[C@H](C)C[C@H](C)/C=C/C=C/C=C1C
- GI50: < 11.7 nM
- TGI: 14900 nM

Compound: CSc1ccc2c(c1)C(N1CCN(C)CC1)Cc1ccccc1S2 (configuration not stated)
- GI50: 1470 nM
- TGI: 3060 nM

Compound: N#CC1c2ccccc2C=CN1C(=O)N(c1ccccc1)c1ccccc1 (configuration not stated)
- GI50: 1700 nM
- TGI: 3400 nM

Compound: COC(=O)[C@H]1CCCN1C(=O)[C@H]1CCCN1C(=O)[C@H](Cc1c[nH]c2ccccc12)NC(=S)Nc1cc(C(F)(F)F)cc(C(F)(F)F)c1
- GI50: 3680 nM
- TGI: 68800 nM

Compound: CC1OC(O[C@@H]2[C@H](O)C(CO)OC(O[C@H]3COC(O[C@H]4CC[C@]5(C)[C@H]6CC[C@]78OC[C@@]9(CCC(C)(C)C[C@H]97)[C@H](O)C[C@@]8(C)[C@]6(C)CC[C@H]5C4(C)C)[C@@H](OC4OC(CO)[C@@H](O)[C@@H](O)[C@@H]4O)[C@@H]3O)[C@H]2OC2OC[C@@H](O)[C@@H](O)[C@@H]2O)[C@@H](O)[C@@H](O)[C@H]1O (some centres not stated)
- GI50: 2110 nM
- TGI: 4330 nM

Compound: O=C1NC(=NCCCc2ccccc2)S/C1=C\c1ccc2ncccc2c1
- GI50: 4370 nM
- TGI: 17400 nM

Compound: COc1ccc(N=N/C(C(=O)C(F)(F)F)=C(\O)c2ccc(Cl)cc2)cc1
- GI50: 1840 nM
- TGI: 5680 nM

Compound: COc1cc2c(=O)[nH]c3cc([N+](=O)[O-])ccc3c2cc1[N+](=O)[O-]
- GI50: 1030 nM
- TGI: 4180 nM

Compound: CC[C@H](C)[C@H](NC(=O)CN(C)C)C(=O)N(C)[C@H](C[C@@H](OC(C)=O)c1nc(C(=O)NC23CC(C(=O)OC)(C2)C3)cs1)C(C)C
- GI50: 130 nM
- TGI: > 25000 nM

Compound: CC[n+]1c(/C=C/C=C2\N(C)c3ccccc3C2(C)C)sc2ccccc21
- GI50: 2770 nM
- TGI: 8440 nM

Compound: O=c1oc2ccc(-c3ccc(F)cc3F)cc2c(=O)n1-c1ccc(F)c(F)c1
- GI50: 1010 nM
- TGI: 4230 nM

Compound: COc1ccc(N(C)c2nc(N)nc3sc4c(c23)CCCC4)cc1
- GI50: < 10 nM

Compound: Cn1ncc2ncc(-c3ccc4ncc(C#N)c(N5CCc6cc(F)c(Cl)cc65)c4c3)cc21
- GI50: 2440 nM
- TGI: 10600 nM

Compound: C=CC(=O)N1CC2(CC(n3nc(-c4ccc5c(cnn5C)c4)c(-c4c(Cl)c(C)cc5[nH]ncc45)c3C)C2)C1
- GI50: 2670 nM
- TGI: 9270 nM

Compound: Oc1[nH]c2ccccc2c1/C=c1/cc2c(c(-c3ccc(F)cc3)n1)=Nc1ccccc1-2
- GI50: 282 nM
- TGI: 978 nM

Compound: CN(CC(=O)N(Cc1ccc(C2CCCCC2)cc1)c1ccc(C(=O)O)cc1)S(=O)(=O)c1c(F)c(F)c(F)c(F)c1F
- GI50: 1760 nM
- TGI: 3270 nM

Compound: O=C1Cc2cc(C(=O)NC3C[C@H]4CC[C@@H](C3)N4S(=O)(=O)CC3CCN(CCCC(F)(F)F)CC3)c(Cl)cc2N1 (some centres not stated)
- GI50: 27000 nM
- TGI: > 100000 nM

Compound: NC(=S)c1c(N)n(C2OC(CO)C(O)C2O)c2ncnc(N)c12 (configuration not stated)
- GI50: 135 nM
- TGI: 326 nM

Compound: COc1cc(-c2nn(-c3cccc(NC(=O)c4ccc(Cl)c(C(F)(F)F)c4)c3)cc2-c2ccncc2)ccc1Cl
- GI50: 2740 nM
- TGI: > 32500 nM

Compound: O=C(Nc1nc2ccccc2s1)Nc1ccc([N+](=O)[O-])cc1Cl
- GI50: 10100 nM
- TGI: 27200 nM

Compound: CCN(CC)Cc1cc2[nH]c3c4ccc(Cl)cc4ncc3c2cc1OC
- GI50: 1870 nM and 1520 nM
- TGI: 3640 nM and 3000 nM

Compound: CN1CSC(=S)N(Cc2ccccc2)C1
- GI50: 2020 nM
- TGI: 6030 nM

Compound: O=C(COc1cccc(/C=C2\CSc3ccccc3C2=O)c1)Nc1nccs1
- GI50: 1590 nM
- TGI: 3150 nM

Compound: Cc1cc(Cl)nc(N(CCCNc2ccnc3cc(Cl)ccc23)Cc2ccco2)n1
- GI50: 1120 nM
- TGI: 3940 nM

Compound: CN(Cc1cnc2nc(N)nc(N)c2n1)c1ccc(C(=O)NC(CCC(=O)O)C(=O)O)cc1Br (configuration not stated)
- GI50: < 10 nM
- TGI: 1910 nM

Compound: Cn1c(-c2c(N)n(CCCN3CCOCC3)c3nc(C#N)c(C#N)nc23)nc2ccccc21
- GI50: 4640 nM
- TGI: > 100000 nM

Compound: CCN1CCN(C(=O)[C@]23CCC(C)(C)C[C@@H]2C2=CC[C@@H]4[C@@]5(C)C/C(=C/c6ccncc6)C(=O)C(C)(C)[C@@H]5CC[C@@]4(C)[C@]2(C)CC3)CC1
- GI50: 1430 nM
- TGI: 3140 nM

Compound: O=C1/C=C/[C@@H](O)[C@@H]2C[C@@H](O)C[C@H]2/C=C/CCC[C@H](C(F)(F)F)O1
- GI50: 23.3 nM
- TGI: 69.1 nM

Compound: COc1ccc(/C(C#N)=C2C=C/C(=N/O)c3ccccc3\2)cc1
- GI50: 395 nM
- TGI: 16500 nM

Compound: COc1nnc2ccc(N3CCC(c4ccc(OCCN5CCN(C)C(=O)[C@H]5C)cc4)CC3)nn12
- GI50: 52 nM
- TGI: > 34800 nM

Compound: CCCCCCCCCCCC[n+]1ccc2ccccc2c1
- GI50: 206 nM
- TGI: 808 nM

Compound: Cc1cc([N+](=O)[O-])c2ccccc2[n+]1[O-]
- GI50: 180 nM and 121 nM
- TGI: 512 nM and 369 nM

Compound: O=[N+]([O-])c1cccc(C2CC(c3ccccc3)=Nc3ccccc3S2)c1 (configuration not stated)
- GI50: 13400 nM
- TGI: 31200 nM
